Assay [1] deals with PI3-K (phosphorylation of AKT at serine 473) in BT20 cells. The assay is described as follows: PI3-Kα cellular assay (phospho-AKT Ser473 ELISA in BT20 cells).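 Also: lysates read by ELISA with TMB colour at 450 nm, cells given 0.5% DMSO vehicle serve as positive control and cell-free wells as negative control, duplicate wells per concentration.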 The conditions noted are these: Homo sapiens, BT-20, 1 h, read-out: S473 pAKT 10% FBS IC50 (μM). (In general: An ELISA detects its analyte on a solid surface through an enzyme-linked reagent.)
In another assay the target is PI3-Kα (Mus musculus (Mouse), UniProt P42337). The assay is described as follows: PI3-Kα biochemical assay (in vitro kinase assay, fluorescence polarization).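 Also: Insect-cell-expressed mouse p110/p85 complex converting PI(4,5)P2, product PI(3,4,5)P3 detected by displacing TAMRA-tagged PI(3,4,5)P3 from Grip1 PH domain, lower polarization means more product, room temperature.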 The settings on record: Ki calculated from IC50, [ATP]=30 uM, Km=25 uM.
Chain of PI3-Kα (P42337 whole entry, the tested form may be a part): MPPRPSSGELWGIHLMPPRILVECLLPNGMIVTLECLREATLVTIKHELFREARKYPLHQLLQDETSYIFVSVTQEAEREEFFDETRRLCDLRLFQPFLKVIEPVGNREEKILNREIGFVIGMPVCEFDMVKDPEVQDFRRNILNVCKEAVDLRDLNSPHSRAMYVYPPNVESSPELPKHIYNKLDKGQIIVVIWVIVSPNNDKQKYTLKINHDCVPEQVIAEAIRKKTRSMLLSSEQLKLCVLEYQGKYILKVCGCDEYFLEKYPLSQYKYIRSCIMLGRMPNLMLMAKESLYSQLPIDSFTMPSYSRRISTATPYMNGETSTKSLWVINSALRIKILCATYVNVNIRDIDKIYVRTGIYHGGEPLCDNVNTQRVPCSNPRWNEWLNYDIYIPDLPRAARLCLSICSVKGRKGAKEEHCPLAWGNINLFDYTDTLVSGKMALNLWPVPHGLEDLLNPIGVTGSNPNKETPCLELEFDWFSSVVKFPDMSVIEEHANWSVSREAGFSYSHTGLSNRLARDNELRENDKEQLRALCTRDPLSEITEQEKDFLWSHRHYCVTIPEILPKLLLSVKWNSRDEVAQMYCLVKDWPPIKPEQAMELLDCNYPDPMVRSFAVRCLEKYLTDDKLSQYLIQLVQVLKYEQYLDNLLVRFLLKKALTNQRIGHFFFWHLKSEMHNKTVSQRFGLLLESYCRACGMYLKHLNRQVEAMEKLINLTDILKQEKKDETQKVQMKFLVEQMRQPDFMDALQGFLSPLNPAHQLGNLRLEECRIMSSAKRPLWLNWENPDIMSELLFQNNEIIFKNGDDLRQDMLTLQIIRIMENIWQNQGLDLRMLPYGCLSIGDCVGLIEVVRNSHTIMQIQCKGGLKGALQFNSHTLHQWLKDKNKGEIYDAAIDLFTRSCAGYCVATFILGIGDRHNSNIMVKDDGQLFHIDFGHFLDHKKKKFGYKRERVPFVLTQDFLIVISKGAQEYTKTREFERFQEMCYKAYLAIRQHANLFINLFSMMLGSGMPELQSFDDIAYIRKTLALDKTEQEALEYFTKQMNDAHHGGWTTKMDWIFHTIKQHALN
Chain of PI3-Kα (P26450 whole entry partner, the tested form may be a part): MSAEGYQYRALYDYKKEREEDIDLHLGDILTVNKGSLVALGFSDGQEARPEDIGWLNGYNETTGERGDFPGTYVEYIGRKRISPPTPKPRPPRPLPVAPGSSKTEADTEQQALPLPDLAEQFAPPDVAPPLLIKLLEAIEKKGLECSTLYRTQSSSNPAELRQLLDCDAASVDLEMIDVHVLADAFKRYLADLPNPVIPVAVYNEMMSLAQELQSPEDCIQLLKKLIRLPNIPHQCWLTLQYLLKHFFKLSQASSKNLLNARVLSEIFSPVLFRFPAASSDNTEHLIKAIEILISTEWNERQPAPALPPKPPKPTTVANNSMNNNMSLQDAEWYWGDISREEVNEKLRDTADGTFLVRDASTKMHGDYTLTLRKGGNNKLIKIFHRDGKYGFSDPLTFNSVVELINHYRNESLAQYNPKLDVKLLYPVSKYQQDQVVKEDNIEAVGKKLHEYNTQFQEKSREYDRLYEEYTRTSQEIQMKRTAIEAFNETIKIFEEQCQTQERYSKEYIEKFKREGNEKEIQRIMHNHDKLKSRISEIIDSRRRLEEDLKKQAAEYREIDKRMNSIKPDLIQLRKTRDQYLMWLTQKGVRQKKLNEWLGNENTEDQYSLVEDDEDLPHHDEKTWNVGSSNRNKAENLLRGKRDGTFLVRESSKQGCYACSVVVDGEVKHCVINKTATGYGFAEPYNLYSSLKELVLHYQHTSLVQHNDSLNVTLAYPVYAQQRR
A further assay deals with mTOR (Homo sapiens (Human), UniProt P42345).
Chain of mTOR (P42345 2156-2469): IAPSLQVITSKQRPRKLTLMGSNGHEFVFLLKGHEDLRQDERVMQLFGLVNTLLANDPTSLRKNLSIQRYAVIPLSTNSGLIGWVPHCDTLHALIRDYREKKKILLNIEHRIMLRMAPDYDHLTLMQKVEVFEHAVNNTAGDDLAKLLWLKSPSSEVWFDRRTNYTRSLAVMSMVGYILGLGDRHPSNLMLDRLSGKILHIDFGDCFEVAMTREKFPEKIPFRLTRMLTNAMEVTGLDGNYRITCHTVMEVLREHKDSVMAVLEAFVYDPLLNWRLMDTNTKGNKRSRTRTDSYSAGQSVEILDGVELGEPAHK

One may read the IC50 as the concentration that gives 50% inhibition. As usually defined, the Ki is a dissociation constant, usually derived from enzyme kinetics or from competition with a known ligand. Regarding `COc1ccc(-c2ccc3ncc4[nH]c(=O)n([C@H]5CC[C@H](O)CC5)c4c3n2)cn1` [Compound 132, 1-(trans-4-hydroxycyclohexyl)-8-(6-methoxypyridin-3-yl)-1,3-dihydro-2H-imidazo[4,5-c][1,5]naphthyridin-2-one], the IC50 in assay [1] came to 0.0468 µM. On PI3-Kα, the “PI3Ka Ki” value is 0.51 nM. Affinity at mTOR was put at a Ki of 1.39 nM.

Regarding `COc1ccc(-c2ccc3ncc4c(c3n2)n(C2CCN(C(C)C)CC2)c(=O)n4C)cn1` [Compound 137, 1-(1-isopropylpiperidin-4-yl)-8-(6-methoxypyridin-3-yl)-3-methyl-1,3-dihydro-2H-imidazo[4,5-c][1,5]naphthyridin-2-one], the IC50 in assay [1] was found to be 0.0551 µM. Also, the “PI3Ka Ki” value at PI3-Kα is 3.48 nM. On mTOR, the Ki is 17.8 nM.

For the compound `COc1ccc(-c2ccc3ncc4c(c3n2)n(C2CCN(C(=O)CN(C)C)CC2)c(=O)n4C)cn1` [Compound 138, 1-[1-(N,N-dimethylglycyl)piperidin-4-yl]-8-(6-methoxypyridin-3-yl)-3-methyl-1,3-dihydro-2H-imidazo[4,5-c][1,5]naphthyridin-2-one], in assay [1], the IC50 is 0.0144 µM. The “PI3Ka Ki” value on PI3-Kα was 2.23 nM. Also, the Ki at mTOR is 10.6 nM.

Regarding `COc1ccc(-c2ccc3ncc4c(c3n2)n(C2CCN(CC(N)=O)CC2)c(=O)n4C)cn1` [Compound 139, 2-{4-[8-(6-methoxypyridin-3-yl)-3-methyl-2-oxo-2,3-dihydro-1H-imidazo[4,5-c][1,5]naphthyridin-1-yl]piperidin-1-yl}acetamide], the IC50 in assay [1] stood at 0.00714 µM. The “PI3Ka Ki” value on PI3-Kα was 0.339 nM. This compound also returned a Ki on mTOR of 3.32 nM.

Take `COc1ccc(-c2ccc3ncc4c(c3n2)n(C2CCOCC2)c(=O)n4C)cn1` [Compound 140, 8-(6-methoxypyridin-3-yl)-3-methyl-1-(tetrahydro-2H-pyran-4-yl)-1,3-dihydro-2H-imidazo[4,5-c][1,5]naphthyridin-2-one]: the IC50 in assay [1] is 0.0185 µM. The “PI3Ka Ki” value on PI3-Kα is 0.668 nM. The affinity at mTOR, expressed as Ki, was 7.74 nM.

Regarding `Cn1c(=O)n(C2CCN(CC(F)(F)F)CC2)c2c3nc(-c4cnc5ccccc5c4)ccc3ncc21` [Compound 141, 3-methyl-8-quinolin-3-yl-1-[1-(2,2,2-trifluoroethyl)piperidin-4-yl]-1,3-dihydro-2H-imidazo[4,5-c][1,5]naphthyridin-2-one], the IC50 in assay [1] turned out to be 0.0148 µM. The “PI3Ka Ki” value on PI3-Kα was 20.5 nM. The Ki on mTOR was found to be 9.56 nM.

Take `CNC(=O)N1CCC(n2c(=O)n(C)c3cnc4ccc(-c5ccc(OC)nc5)nc4c32)CC1` [Compound 142, 4-[8-(6-methoxypyridin-3-yl)-3-methyl-2-oxo-2,3-dihydro-1H-imidazo[4,5-c][1,5]naphthyridin-1-yl]-N-methylpiperidine-1-carboxamide]: the IC50 in assay [1] stood at 0.00919 µM. Further, the “PI3Ka Ki” value at PI3-Kα is 1.15 nM. The affinity at mTOR corresponds to a Ki of 1.6 nM.

As for `Cn1c(=O)n(C2CCN(C(=O)C(C)(C)O)CC2)c2c3nc(-c4cnc5ccccc5c4)ccc3ncc21` [Compound 143, 1-[1-(2-hydroxy-2-methylpropanoyl)piperidin-4-yl]-3-methyl-8-quinolin-3-yl-1,3-dihydro-2H-imidazo[4,5-c][1,5]naphthyridin-2-one], in assay [1], the half-inhibitory concentration (IC50) came out at 0.028 µM. For the same compound, the “PI3Ka Ki” value on PI3-Kα is 0.568 nM. The compound also gave a Ki at mTOR of 7.21 nM.

Regarding `CN(C)CC(=O)N1CCC(n2c(=O)n(C)c3cnc4ccc(-c5ccc(N(C)C)nc5)nc4c32)CC1` [Compound 144, 8-[6-(dimethylamino)pyridin-3-yl]-1-[1-(N,N-dimethylglycyl)piperidin-4-yl]-3-methyl-1,3-dihydro-2H-imidazo[4,5-c][1,5]naphthyridin-2-one], the IC50 in assay [1] came out at 0.0153 µM. In addition, the “PI3Ka Ki” value on PI3-Kα is 2.1 nM. Also, at mTOR, the Ki is 7.99 nM.

In the case of `Cn1c(=O)n(C2CCN(C(=O)C(C)(C)N)CC2)c2c3nc(-c4cnc5ccccc5c4)ccc3ncc21` [Compound 145, 3-methyl-1-[1-(2-methylalanyl)piperidin-4-yl]-8-quinolin-3-yl-1,3-dihydro-2H-imidazo[4,5-c][1,5]naphthyridin-2-one], in assay [1], the IC50 amounted to 0.0117 µM. The “PI3Ka Ki” value at PI3-Kα is 3.92 nM. The Ki on mTOR was determined as 13.3 nM.

Take `Cn1c(=O)n([C@H]2CC[C@H](O)CC2)c2c3nc(-c4cnc5ccccc5c4)ccc3ncc21` [Compound 146, 1-(trans-4-hydroxycyclohexyl)-3-methyl-8-quinolin-3-yl-1,3-dihydro-2H-imidazo[4,5-c][1,5]naphthyridin-2-one]: the IC50 in assay [1] is 0.00521 µM. Moreover, the “PI3Ka Ki” value at PI3-Kα was 1.2 nM. On mTOR, the Ki was found to be 3.8 nM.

Turning to `Cn1c(=O)n([C@H]2CC[C@H](OCCO)CC2)c2c3nc(-c4cnc5ccccc5c4)ccc3ncc21` [Compound 147, 1-[trans-4-(2-hydroxyethoxy)cyclohexyl]-3-methyl-8-quinolin-3-yl-1,3-dihydro-2H-imidazol[4,5-c][1,5]naphthyridin-2-one], the IC50 in assay [1] amounted to 0.0107 µM. On PI3-Kα, the “PI3Ka Ki” value was 1.08 nM. On mTOR, this compound returned a Ki of 10.1 nM.

Turning to `COc1ncc(-c2ccc3ncc4c(c3n2)n([C@H]2CC[C@H](OCCO)CC2)c(=O)n4C)cn1` [Compound 148, 1-[trans-4-(2-hydroxyethoxy)cyclohexyl]-8-(2-methoxypyrimidin-5-yl)-3-methyl-1,3-dihydro-2H-imidazo[4,5-c][1,5]naphthyridin-2-one], the IC50 in assay [1] worked out at 0.0263 µM. Also, on PI3-Kα, the “PI3Ka Ki” value is 2.09 nM. Moreover, at mTOR, the affinity corresponds to a Ki of 13.4 nM.

For `CN(C)c1ccc(-c2ccc3ncc4c(c3n2)n([C@H]2CC[C@H](OCCO)CC2)c(=O)n4C)cn1` [Compound 149, 8-[6-(dimethylamino)pyridin-3-yl]-1-[trans-4-(2-hydroxyethoxy)cyclohexyl]-3-methyl-1,3-dihydro-2H-imidazo[4,5-c][1,5]naphthyridin-2-one], the IC50 in assay [1] amounted to 0.0116 µM. For the same compound, the “PI3Ka Ki” value at PI3-Kα was 0.102 nM. Moreover, affinity at mTOR was put at a Ki of 9.02 nM.

For `CN(C)c1ccc(-c2ccc3ncc4c(c3n2)n(C2CCN(CC(F)(F)F)CC2)c(=O)n4C)cn1` [Compound 150, 8-[6-(dimethylamino)pyridin-3-yl]-3-methyl-1-[1-(2,2,2-trifluoroethyl)piperidin-4-yl]-1,3-dihydro-2H-imidazo[4,5-c][1,5]naphthyridin-2-one], the IC50 in assay [1] turned out to be 0.0182 µM. Moreover, on PI3-Kα, the “PI3Ka Ki” value is 8.78 nM. At mTOR, this compound came in with a Ki of 12.5 nM.

With `Cc1ccc(-c2ccc3ncc4c(c3n2)n([C@H]2CC[C@H](OCCO)CC2)c(=O)n4C)cn1` [Compound 152, 1-[trans-4-(2-hydroxyethoxy)cyclohexyl]-3-methyl-8-(6-methylpyridin-3-yl)-1,3-dihydro-2H-imidazo[4,5-c][1,5]naphthyridin-2-one], the IC50 in assay [1] was 0.00863 µM. Also, the “PI3Ka Ki” value on PI3-Kα was 1.68 nM. In addition, the Ki at mTOR turned out to be 11.4 nM.

In the case of `COc1ncc(-c2ccc3ncc4c(c3n2)n(C2CCN(C(=O)[C@H](C)O)CC2)c(=O)n4C)cn1` [Compound 154, 1-{1-[(2S)-2-hydroxypropanoyl]piperidin-4-yl}-8-(2-methoxypyrimidin-5-yl)-3-methyl-1,3-dihydro-2H-imidazo[4,5-c][1,5]naphthyridin-2-one], in assay [1], the IC50 was 0.0342 µM. Moreover, on PI3-Kα, the “PI3Ka Ki” value is 2.59 nM. Also, the Ki on mTOR was determined as 0.822 nM.

Values taken from patent publication US8791131B2, “Imidazo[1,5]naphthyridine compounds, their pharmaceutical use and compositions” (Pfizer Inc., priority 2008, dated 2014).
